From patent publication US10780174B2, “Lipid-linked prodrugs” (The University of British Columbia, priority 2015, dated 2020)
Entries after “also recorded” stand apart in the source; their conditions may differ. Like-named read-outs stand apart in the source and are kept apart here.

Columns and labels:
[1] = test system: immunostimulatory effects of LNP-CpG (plasma cytokines); assay: In vivo immune suppression by LD-DEX prodrugs, LNP-CpG model; design: species or system C57Bl/6 mice; conditions: mice, i.v., 10 mg/kg of CpG, 2 h post injection
Method: (§1) 6-8 Weeks old female C57Bl/6 mice (Charles River Laboratories™, Wilmington, Mass.) were injected intravenously with lipid nanoparticles containing CpG DNA oligonucleotides (10 mg/kg), mRNA (3 mg/kg) or plasmid DNA (pDNA) (1 mg/kg). Animals were euthanized 2 hours post-injection and blood was collected via intracardiac or saphenous sampling. Plasma was separated from whole blood by centrifugation and analyzed for proinflammatory cytokines using the Mesoscale Proinflammatory Multiplex™ kit (Rockville, Md.) according to manufacturer's instruction. All procedures were approved by the Animal Care Committee at the University of British Columbia and were performed in accordance with guidelines established by the Canadian Council on Animal Care.

[2] = In vitro degradation of lipid-linked prodrugs in LNP, mouse plasma; format: in vitro ADME; conditions: for prodrug degradation over 24 h in mouse plasma: LNP, 0, 2, 4 and 24 h; for prodrug cleavage/degradation after 1 h in plasma: 37° C., mouse plasma; for release of active drug (UPLC chromatogram) in mouse plasma: 24 h incubation
Method: (§2) Quantitation of prodrugs by HPLC: LD-DEX/DTX were quantified by ultra high-pressure liquid chromatography (UHPLC) using a Waters Acquity™ UPLC system equipped with a photodiode array detector (PDA) and evaporative light scattering (ELS) detector; Empower™ data acquisition software version 3.0 was used (Waters™, USA). Separations were performed using a Waters Acquity™ BEH C18 column (1.7 μm, 2.1×100 mm) at a flow rate of 0.5 ml/min, with mobile phases A and B consisting of methanol/10 mM ammonium bicarbonate (80/20% v/v) and methanol/acetonitrile (80/20% v/v), respectively. The mobile phases were delivered at a programmed linear gradient (45%-80% B in 1 min then to 99% B at 2 min) at a column temperature of 55° C. The analyte was measured by PDA (at a wavelength of 239 nm) and ELS detector against calibration standard curves. For the analysis of LD-DEX/DTX breakdown to active compound, linear gradients of 20/80% to 100/0% (acetonitrile/water, v/v) over 7 min were used.
To determine the biodegradability of the dexamethasone or docetaxel prodrugs (LD-DEX/DTX), 1 mg/mL LNP was incubated in mouse plasma (Cedarlane™, Burlington, Ontario) or PBS supplemented with 10 U of purified esterase (Sigma-Aldrich™, St. […] Post incubation, four volumes of chloroform/methanol (2:1) was added and the mixture was vortex mixed. Samples were centrifuged at 13,000 g for 5 minutes and the upper phase was discarded. The remaining organic phase was dried down under vacuum and the resulting lipid extract was dissolved in methanol/acetonitrile (1:1). Quantity of parent LD-DEX/DTX compound was determined by ultra high pressure liquid chromatography on a Waters Acquity™ H-Class UPLC System™ equipped with a BEH C18 column and a photodiode array detector.

[3] = test system: purified porcine esterase; assay: In vitro degradation of lipid-linked prodrugs in LNP, purified esterase in PBS; conditions: for prodrug degradation over 24 h in purified esterase: LNP, 0, 2, 4 and 24 h; for release of active drug (UPLC chromatogram) in purified esterase: 24 h incubation
[4] = Particle size and polydispersity of LNP containing prodrug (dynamic light scattering); format: physicochemical; conditions: PDI in brackets; for Particle size (PDI) PC-Chol LNP: LD-DEX prodrug in PC-Chol LNP; for Particle size (PDI) [ionizable LNP]: LD-DEX prodrug in ionizable LNP
Method: (§3) Preparation of LNP Systems: PC-Chol LNP systems were prepared by rapidly mixing POPC, cholesterol, lipid-linked prodrug and PEG-DMPE (in molar ratio of 49/39/10/2) dissolved in ethanol with phosphate-buffered saline using a T-junction mixer. Formulations were dialyzed against phosphate-buffered saline to remove residual ethanol and to raise the pH to 7.4. PC-TO and ionizable LNP systems were prepared in the same way except that the lipid compositions for these systems are: POPC, triolein, lipid-linked prodrug and PEG-DSPE (in molar ration of 19/70/10/1), and ionizable lipid, DSPC, cholesterol, lipid-linked prodrug and PEG-DMPE (in molar ration of 40/10/38.5/10/1.5), respectively.
Characterization of LNP: Particle size was determined by dynamic light scattering using a Malvern Zetasizer Nano ZS™ (Malvern, UK) following buffer exchange into phosphate-buffered saline. Number-weighted size and distribution data was used. Lipid concentrations were determined by measuring total cholesterol using the Cholesterol E enzymatic assay kit from Wako Chemicals USA™ (Richmond, Va.). The morphology of LNP formulations containing LD-DEX was analyzed by cryogenic-transmission electron microscopy (cryoTEM) as described previously [Leung et al. (2012)].

[5] = Prodrug incorporation (entrapment) in lipid nanoparticles, UHPLC; format: physicochemical; conditions: for % Entrapment PC-Chol LNP: LD-DEX prodrug in PC-Chol LNP; for % Entrapment [ionizable LNP]: LD-DEX prodrug in ionizable LNP
Method: as §3, §2

[6] = In vitro dissociation of lipid-linked prodrugs from LNP in human plasma; format: in vitro ADME; conditions: human plasma over 24 h, 37° C., PC-Chol LNP or ionizable LNP
Method: LNP were incubated for 0, 3, 5 and 24 h at 37° C. in 400 μL of sterile human plasma (Cedarlane™, Burlington, Ontario) at a final lipid concentration of 1.2 mM. At the various time-points, samples were loaded onto a 1.5×27 cm Sepharose CL-4B column (Sigma-Aldrich™, St. Louis, Mo.). 30×2 mL fractions were collected. Three volumes of methanol/acetonitrile (1:1) were added to each fraction and analyzed by UHPLC to determine the residual LD-DEX/DTX as described above.

[7] = test system: IL1β expression in RAW 264.7 mouse macrophage cells; assay: In vitro immune suppression, LPS-treated RAW 264.7 cells, IL1β qRT-PCR; format: cell-based; conditions: 2 ng/mL LPS, 4 h
Method: RAW 264.7 mouse macrophage cells were seeded at 250,000 cells per mL on 12-well plates and incubated at 37° C. overnight. Lipopolysaccharide (LPS) was dissolved in phosphate buffered saline at a concentration of 2 μg/ml. Cells were treated with lipid nanoparticles containing LD-DEX prodrugs and 2 ng/ml of LPS for 4 hours. This LPS concentration was chosen due to its ability to increase IL1β expression approximately 1000 times as compared to untreated cells. At the end of the incubation period, culture medium was aspirated and cellular RNA was extracted using the Purelink RNA™ extraction kit according to manufacturer's protocol (Life Technologies™, Burlington, ON). The concentration of extracted RNA was determined using a Nanodrop Lite™ (Thermo Fisher™). 1 μg of RNA was converted to cDNA using the High Capacity cDNA Reverse Transcription kit (Life Technologies™, Burlington, ON). In order to validate the sample preparation, a no template control and a negative reverse transcriptase control were included. The cDNA was then quantified using comparative real-time qPCR where the Ct (threshold cycle) values are converted to relative quantity using the 2-ΔΔCT method. The primer-probe sets were designed to bind to cDNA of Interleukin-1β(IL1β). Hypoxanthine-guanine phosphoribosyltransferase (HPRT) was chosen as the endogenous normalizer gene, which is known to maintain consistent levels with varying treatments.

[8] = test system: purified porcine esterase; conditions: pig, 1 mg/mL LNP
[9] = test system: immunostimulatory effects of LNP-pDNA (plasma cytokines); assay: In vivo immune suppression by LD-DEX prodrugs, LNP-pDNA model; design: species or system C57Bl/6 mice; conditions: mice, i.v., 1 mg/kg of pDNA, 2 h post injection
Method: as §1

[10] = test system: immunostimulatory effects of LNP-mRNA (plasma cytokines); assay: In vivo immune suppression by LD-DEX prodrugs, LNP-mRNA model; design: species or system C57Bl/6 mice; conditions: mice, 3 mg/kg of mRNA, 2 h post injection
Method: as §1

CCCCC/C=C\C/C=C\CCCCCCCC(=O)OC[C@H](COC(=O)CCC(=O)OCC(=O)[C@@]1(O)[C@H](C)C[C@H]2[C@@H]3CCC4=CC(=O)C=C[C@]4(C)[C@@]3(F)[C@@H](O)C[C@@]21C)OC(=O)CCCCCCC/C=C\C/C=C\CCCCC [LD02-DEX, 2,3-dilinoleoyloxypropyl (2-((8S,9R,10S,11S,13S,14S,16R,17R)-9-fluoro-11,17-dihydroxy-10,13,16-trimethyl-3-oxo-6,7,8,9,10,11,12,13,14,15,16,17-dodecahydro-3H-cyclopenta[a]phenanthren-17-yl)-2-oxoethyl) succinate]
plasma TNFα and KC/GRO levels versus control LNP-CpG [1]: marked reduction in cytokine levels
prodrug degradation over 24 h in mouse plasma [2]: progressively degraded
prodrug cleavage/degradation after 1 h in plasma ([2]; LNP): virtually no degradation
release of active drug (UPLC chromatogram) in mouse plasma ([2]; LNP): a peak corresponding to active dexamethasone (DEX) appeared
prodrug degradation over 24 h in purified esterase [3]: progressively degraded
release of active drug (UPLC chromatogram) in purified esterase ([3]; LNP): a peak corresponding to active dexamethasone (DEX) appeared
Particle size (PDI) PC-Chol LNP [4]: 53 (0.05) nm
Particle size (PDI) [ionizable LNP] [4]: [49 (0.05)] nm
% Entrapment PC-Chol LNP [5]: 100%
% Entrapment [ionizable LNP] [5]: [99] %
prodrug dissociation rate from LNP [6]: dissociated from lipid nanoparticles at a slower rate than LD03-DEX
prodrug dissociation rate from LNP ([6]; listed as LD02): dissociates from LNP at a slower rate than that of LD03

CCCCC/C=C\C/C=C\CCCCCCCCOC(=O)CCC(=O)OCC(=O)[C@@]1(O)[C@H](C)C[C@H]2[C@@H]3CCC4=CC(=O)C=C[C@]4(C)[C@@]3(F)[C@@H](O)C[C@@]21C [LD03-DEX, linoleyl 2-((8S,9R,10S,11S,13S,14S,16R,17R)-9-fluoro-11,17-dihydroxy-10,13,16-trimethyl-3-oxo-6,7,8,9,10,11,12,13,14,15,16,17-dodecahydro-3H-cyclopenta[a]phenanthren-47-yl)-2-oxoethyl succinate]
IL1β expression versus control LNP without prodrug [7]: able to reduce IL1β expression
plasma TNFα and KC/GRO levels versus control LNP-CpG [1]: marked reduction in cytokine levels
prodrug degradation over 24 h in purified esterase [8]: degraded at a faster rate than LD02-DEX
prodrug degradation over 24 h in mouse plasma [2]: progressively degraded; also recorded: degraded at a faster rate than LD02-DEX
prodrug cleavage in plasma ([2]; LNP, 1 or 4 h incubation in plasma): progressive prodrug cleavage
prodrug cleavage/degradation after 1 h in plasma ([2]; LNP): significant cleavage
release of active drug (UPLC chromatogram) in mouse plasma ([2]; LNP): a peak corresponding to active dexamethasone (DEX) appeared
prodrug degradation over 24 h in purified esterase [3]: progressively degraded
prodrug cleavage in PBS containing isolated esterases ([3]; LNP, 1 or 4 h incubation): progressive prodrug cleavage
release of active drug (UPLC chromatogram) in purified esterase ([3]; LNP): a peak corresponding to active dexamethasone (DEX) appeared
plasma cytokine levels versus control LNP-pDNA ([9]; 1 mg/kg): efficiently suppressed cytokine levels
plasma cytokine levels versus control LNP-pDNA ([9]; listed as LD03, 1 mg/kg): suppresses the immunostimulatory effects of LNP-pDNA
Particle size (PDI) PC-Chol LNP [4]: 64 (0.06) nm
Particle size (PDI) [ionizable LNP] [4]: [48 (0.04)] nm
% Entrapment PC-Chol LNP [5]: 94%
% Entrapment [ionizable LNP] [5]: [100] %
plasma cytokine levels versus control LNP-mRNA ([10]; 3 mg/kg): significantly reduced levels
plasma cytokine levels versus control LNP-mRNA ([10]; listed as LD03, 3 mg/kg): suppresses the immunostimulatory effects of LNP-mRNA
